# Results as given in patent publication US20250282794A1 (CURADEV PHARMA LTD, priority 2022, published 2025).
# Biological target: recombinant full length HPK-1 enzyme (Homo sapiens (Human), UniProt Q92918)
# Assay: HPK-1 biochemical enzyme assay (ADP-Glo kinase inhibition)
# Conditions: recombinant full length HPK-1 6.8 nM, 10 μM ATP, 12.5 μM MBP, 30 mins at 25° C.
# Procedure, shortened: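 ADP-Glo readout of ADP formed after a 30 min, 25° C. reaction of 6.8 nM full-length HPK-1 with swine myelin basic protein (12.5 μM) and ATP (10 μM) in Tris pH 7.4 buffer with MgCl2, DTT and BSA. Ten compound concentrations tested; percent inhibition set against vehicle (0%) and no-enzyme (100%) controls gave IC50.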
# Chain of recombinant full length HPK-1 enzyme (Q92918 whole entry, species assumed): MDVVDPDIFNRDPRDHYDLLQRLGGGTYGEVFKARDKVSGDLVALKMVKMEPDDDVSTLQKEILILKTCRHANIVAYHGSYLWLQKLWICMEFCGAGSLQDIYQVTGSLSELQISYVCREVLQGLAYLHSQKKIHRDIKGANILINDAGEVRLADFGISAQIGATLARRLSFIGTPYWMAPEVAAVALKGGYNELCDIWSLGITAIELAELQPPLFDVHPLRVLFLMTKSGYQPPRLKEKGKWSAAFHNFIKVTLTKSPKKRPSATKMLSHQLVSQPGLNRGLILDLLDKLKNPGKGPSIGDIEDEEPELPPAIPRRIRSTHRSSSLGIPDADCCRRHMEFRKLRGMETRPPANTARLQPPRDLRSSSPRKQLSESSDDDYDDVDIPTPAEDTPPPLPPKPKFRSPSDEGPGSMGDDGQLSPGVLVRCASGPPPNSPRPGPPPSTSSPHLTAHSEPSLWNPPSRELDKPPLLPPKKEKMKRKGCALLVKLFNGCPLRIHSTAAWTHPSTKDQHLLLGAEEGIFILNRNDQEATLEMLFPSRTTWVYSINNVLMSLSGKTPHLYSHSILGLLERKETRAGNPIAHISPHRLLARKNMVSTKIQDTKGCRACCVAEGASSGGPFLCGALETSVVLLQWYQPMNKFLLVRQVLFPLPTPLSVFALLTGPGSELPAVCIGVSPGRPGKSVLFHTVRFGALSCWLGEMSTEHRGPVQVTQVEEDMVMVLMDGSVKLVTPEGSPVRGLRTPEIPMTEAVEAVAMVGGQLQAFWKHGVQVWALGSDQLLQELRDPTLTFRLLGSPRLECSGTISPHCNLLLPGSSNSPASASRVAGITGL
row,IC50 [nM],SMILES
1,10 to 100,"Cc1c(Nc2cc[nH]c(=O)c2C(=O)Nc2ccc(N3CCN(C)CC3)c(C(F)(F)F)c2)cnc2c1NCC(C)O2 (centres unmarked) [Example 196, 4-((3,8-dimethyl-2,3-dihydro-1H-pyrido[2,3-b][1,4]oxazin-7-yl)amino)-N-(4-(4-methylpiperazin-1-yl)-3-(trifluoromethyl)phenyl)-2-oxo-1,2-dihydropyridine-3-carboxamide]"
2,10 to 100,"COCC1CN(C)CCN1c1ccc(NC(=O)c2c(Nc3cnc4c(c3C)NCC(C)O4)cc[nH]c2=O)cc1 (centres unmarked) [Example 197, 4-((3,8-Dimethyl-2,3-dihydro-1H-pyrido[2,3-b][1,4]oxazin-7-yl)amino)-N-(4-(2-(methoxymethyl)-4-methylpiperazin-1-yl)phenyl)-2-oxo-1,2-dihydropyridine-3-carboxamide]"
3,10 to 100,"Cc1c(Nc2cc[nH]c(=O)c2C(=O)Nc2ccc(N3CCN(C)CC3)cc2)cnc2c1NCC(F)O2 (centres unmarked) [Example 198, 4-((3-Fluoro-8-methyl-2,3-dihydro-1H-pyrido[2,3-b][1,4]oxazin-7-yl)amino)-N-(4-(4-methylpiperazin-1-yl)phenyl)-2-oxo-1,2-dihydropyridine-3-carboxamide]"
4,10 to 100,Cc1c(Nc2cc[nH]c(=O)c2C(=O)Nc2ccc(N3CCN(C)CC3)nc2)cnc2c1NCC(C)O2 (centres unmarked) [Example 199]
5,10 to 100,"Cc1c(Nc2cc[nH]c(=O)c2C(=O)Nc2ccc(N3CCN4CCCC4C3)cc2)cnc2c1NCC(C)O2 (centres unmarked) [Example 201, 4-((3,8-dimethyl-2,3-dihydro-1H-pyrido[2,3-b][1,4]oxazin-7-yl)amino)-N-(4-(hexahydropyrrolo[1,2-a]pyrazin-2(1H)-yl)phenyl)-2-oxo-1,2-dihydropyridine-3-carboxamide]"
6,10 to 100,"COc1cc(NC(=O)c2c(Nc3cnc4c(c3C)NCC(C)O4)cc[nH]c2=O)ccc1N1CCN(C)CC1 (centres unmarked) [Example 203, 4-((3,8-dimethyl-2,3-dihydro-1H-pyrido[2,3-b][1,4]oxazin-7-yl)amino)-N-(3-methoxy-4-(4-methylpiperazin-1-yl)phenyl)-2-oxo-1,2-dihydropyridine-3-carboxamide]"
7,10 to 100,"Cc1c(Nc2cc[nH]c(=O)c2C(=O)Nc2ccc(N3CCN(C)CC3)c(CO)c2)cnc2c1NCC(C)O2 (centres unmarked) [Example 204, 4-((3,8-dimethyl-2,3-dihydro-1H-pyrido[2,3-b][1,4]oxazin-7-yl)amino)-N-(3-(hydroxymethyl)-4-(4-methylpiperazin-1-yl)phenyl)-2-oxo-1,2-dihydropyridine-3-carboxamide]"
8,10 to 100,"Cc1c(Nc2cc[nH]c(=O)c2C(=O)Nc2ccc(NC3CCN(C)CC3)cc2)cnc2c1NCCO2 [Example 209, 4-((8-methyl-2,3-dihydro-1H-pyrido[2,3-b][1,4]oxazin-7-yl)amino)-N-(4-((1-methylpiperidin-4-yl)amino)phenyl)-2-oxo-1,2-dihydropyridine-3-carboxamide]"
9,≤ 10,"Cc1c(Nc2cc[nH]c(=O)c2C(=O)Nc2ccc(N3CCCC(C(C)(C)O)C3)cc2)cnc2c1NCCO2 (centres unmarked) [Example 212, N-(4-(3-(2-hydroxypropan-2-yl)piperidin-1-yl)phenyl)-4-((8-methyl-2,3-dihydro-1H-pyrido[2,3-b][1,4]oxazin-7-yl)amino)-2-oxo-1,2-dihydropyridine-3-carboxamide]"
10,10 to 100,"Cc1c(Nc2cc[nH]c(=O)c2C(=O)Nc2ccc(CN3CCN(C)CC3)c(C(F)(F)F)c2)cnc2c1NCCO2 [Example 213, 4-((8-methyl-2,3-dihydro-1H-pyrido[2,3-b][1,4]oxazin-7-yl)amino)-N-(4-((4-methylpiperazin-1-yl)methyl)-3-(trifluoromethyl)phenyl)-2-oxo-1,2-dihydropyridine-3-carboxamide]"
11,≤ 10,"Cc1c(Nc2cc[nH]c(=O)c2C(=O)Nc2ccc(C3CCCN(C)C3)cc2)cnc2c1NCCO2 (centres unmarked) [Example 214, 4-((8-methyl-2,3-dihydro-1H-pyrido[2,3-b][1,4]oxazin-7-yl)amino)-N-(4-(1-methylpiperidin-3-yl)phenyl)-2-oxo-1,2-dihydropyridine-3-carboxamide]"

# More lines, now with the values behind:
row,SMILES,IC50 [nM]
1,"Cc1cc(NC(=O)c2c(Nc3cnc4c(c3C)NCC(C)O4)cc[nH]c2=O)ccc1N1CCN(C)CC1 (centres unmarked) [Example 200, 4-((3,8-dimethyl-2,3-dihydro-1H-pyrido[2,3-b][1,4]oxazin-7-yl)amino)-N-(3-methyl-4-(4-methylpiperazin-1-yl)phenyl)-2-oxo-1,2-dihydropyridine-3-carboxamide]",≤ 10
2,"COCCN1CCC(c2ccc(NC(=O)c3c(Nc4cnc5c(c4C)NCCO5)cc[nH]c3=O)cc2)CC1 [Example 202, N-(4-(1-(2-methoxyethyl)piperidin-4-yl)phenyl)-4-((8-methyl-2,3-dihydro-1H-pyrido[2,3-b][1,4]oxazin-7-yl)amino)-2-oxo-1,2-dihydropyridine-3-carboxamide]",10 to 100
3,"Cc1c(Nc2cc[nH]c(=O)c2C(=O)Nc2ccc(N3CCOCC3)cc2)cnc2c1NCCO2 [Example 205, 4-((8-methyl-2,3-dihydro-1H-pyrido[2,3-b][1,4]oxazin-7-yl)amino)-N-(4-morpholinophenyl)-2-oxo-1,2-dihydropyridine-3-carboxamide]",10 to 100
4,"Cc1c(Nc2cc[nH]c(=O)c2C(=O)Nc2ccc(CN3CCN(C)CC3)cc2)cnc2c1NCCO2 [Example 206, 4-((8-methyl-2,3-dihydro-1H-pyrido[2,3-b][1,4]oxazin-7-yl)amino)-N-(4-((4-methylpiperazin-1-yl)methyl)phenyl)-2-oxo-1,2-dihydropyridine-3-carboxamide]",10 to 100
5,"Cc1c(Nc2cc[nH]c(=O)c2C(=O)Nc2ccc(N3CCN(C)CC3)cc2F)cnc2c1NCCO2 [Example 207, N-(2-fluoro-4-(4-methylpiperazin-1-yl)phenyl)-4-((8-methyl-2,3-dihydro-1H-pyrido[2,3-b][1,4]oxazin-7-yl)amino)-2-oxo-1,2-dihydropyridine-3-carboxamide]",10 to 100
6,"Cc1c(Nc2cc[nH]c(=O)c2C(=O)Nc2ccc(N3CCN(C)CC3)c(C(=O)N(C)C)c2)cnc2c1NCCO2 [Example 208, N-(3-(dimethylcarbamoyl)-4-(4-methylpiperazin-1-yl)phenyl)-4-((8-methyl-2,3-dihydro-1H-pyrido[2,3-b][1,4]oxazin-7-yl)amino)-2-oxo-1,2-dihydropyridine-3-carboxamide]",100 to 1000
7,"Cc1c(Nc2cc[nH]c(=O)c2C(=O)Nc2ccc(S(N)(=O)=O)cc2)cnc2c1NCCO2 [Example 210, 4-((8-methyl-2,3-dihydro-1H-pyrido[2,3-b][1,4]oxazin-7-yl)amino)-2-oxo-N-(4-sulfamoylphenyl)-1,2-dihydropyridine-3-carboxamide]",10 to 100
8,"Cc1c(Nc2cc[nH]c(=O)c2C(=O)Nc2ccc(N3CCN(C)CC3)c(-n3cnnc3)c2)cnc2c1NCCO2 [Example 211, 4-((8-methyl-2,3-dihydro-1H-pyrido[2,3-b][1,4]oxazin-7-yl)amino)-N-(4-(4-methylpiperazin-1-yl)-3-(4H-1,2,4-triazol-4-yl)phenyl)-2-oxo-1,2-dihydropyridine-3-carboxamide]",10 to 100
9,"Cc1c(Nc2cc[nH]c(=O)c2C(=O)Nc2ccc(N3CCN(C)CC3)c(C(=O)O)c2)cnc2c1NCCO2 [Example 215, 5-(4-((8-methyl-2,3-dihydro-1H-pyrido[2,3-b][1,4]oxazin-7-yl)amino)-2-oxo-1,2-dihydropyridine-3-carboxamido)-2-(4-methylpiperazin-1-yl)benzoic acid]",100 to 1000
